According to patent US5985922A, “Amino acid derivatives and active oxygen-resisting agent” (Ajinomoto Co., Inc., priority 1997, dated 1999):

Legend:
lipid peroxidation = assay: Test for an Active Oxygen Resistance (inhibition of lipid peroxidation in mouse brain homogenate); format: biochemical; details: whole brain homogenate, C57 black mouse, 20-mM phosphate buffer; 37° C., 30 minutes
Procedure: The test was conducted according to the method described in Method in Enzymol., vol. 52, p. […] The outline of the test method was that a homogenized 20-mM phosphate buffer of the whole brain of a C57 black mouse was prepared, a test substance was added thereto, and an absorbance of the mixture was measured.
Percent peroxidation inhibition (%)--
A1 : Absorbance in the addition of the test compound
A2 : Absorbance before the addition of the test compound
A3 : Absorbance when the test compound is not added, nor is the heating at 37° C. for 30 minutes conducted.

[1] = Test for a Solubility (oil solvents, 1% by weight); format: physicochemical
Procedure: The solubility in the solvent shown in Table 2 when the concentration was 1% by weight was evaluated.

O=C1O[C@H]([C@@H](O)CO)C(O)=C1O [Vitamin C, reference compound]
Percent inhibition of lipid peroxidation (lipid peroxidation): -23%

CCCCCCCCCCCCNC(=O)CNCc1ccccc1O [Synthesis Example 7, N-(2-hydroxybenzyl)glycine laurylamide]
Solubility in liquid paraffin [1]: gelling | Solubility in olive oil [1]: soluble

O=C(O)CC(O)(CC(=O)O)C(=O)O [Citric acid, reference compound]
Percent inhibition of lipid peroxidation (lipid peroxidation): -15%

CCCCCCCCCCCCOC(=O)[C@H](C)NCc1ccccc1O [Synthesis Example 1, N-(2-hydroxybenzyl)-L-alanine lauryl ester]
Solubility in liquid paraffin [1]: soluble | Solubility in olive oil [1]: soluble | Percent inhibition of lipid peroxidation (lipid peroxidation): 39%

CCCCCCCCCCCCCCCCCCNC(=O)[C@H](C)NCc1ccccc1O [Synthesis Example 6, N-(2-hydroxybenzyl)-L-alanine stearylamide]
Solubility in liquid paraffin [1]: gelling | Solubility in olive oil [1]: soluble | Percent inhibition of lipid peroxidation (lipid peroxidation): 17%

O=C(O)CNCc1ccccc1O [N-(2-hydroxybenzyl)-L-glycine, reference compound]
Solubility in liquid paraffin [1]: insoluble | Solubility in olive oil [1]: insoluble

CCCCCCCCCCCCNC(=O)[C@H](C)NCc1ccccc1O [Synthesis Example 5, N-(2-hydroxybenzyl)-L-alanine laurylamide]
Solubility in liquid paraffin [1]: gelling | Solubility in olive oil [1]: soluble | Percent inhibition of lipid peroxidation (lipid peroxidation): 80%

CCCCCCCCCCCCNC(=O)[C@H](Cc1ccccc1)NCc1ccccc1O [Synthesis Example 8, N-(2-hydroxybenzyl)phenylalanine laurylamide]
Solubility in liquid paraffin [1]: gelling | Solubility in olive oil [1]: soluble

CCCCCCCCCCCCCCCCCCOC(=O)[C@H](C)NCc1ccccc1O [Synthesis Example 2, N-(2-hydroxybenzyl)-L-alanine stearyl ester]
Solubility in liquid paraffin [1]: soluble | Solubility in olive oil [1]: soluble | Percent inhibition of lipid peroxidation (lipid peroxidation): 16%

CCCCCCCCCCCCOC(=O)CNCc1ccccc1O [Synthesis Example 3, N-(2-hydroxybenzyl)glycine lauryl ester]
Solubility in liquid paraffin [1]: soluble | Solubility in olive oil [1]: soluble

C[C@H](NCc1ccccc1O)C(=O)O [N-(2-hydroxybenzyl)-L-alanine, reference compound]
Solubility in liquid paraffin [1]: insoluble | Solubility in olive oil [1]: insoluble | Percent inhibition of lipid peroxidation (lipid peroxidation): 6%

CCCCCCCCCCCCOC(=O)[C@H](Cc1ccccc1)NCc1ccccc1O [Synthesis Example 4, N-(2-hydroxybenzyl)-L-phenylalanine lauryl ester]
Solubility in liquid paraffin [1]: soluble | Solubility in olive oil [1]: soluble

O=C(O)[C@H](Cc1ccccc1)NCc1ccccc1O [N-(2-hydroxybenzyl)-L-phenylalanine, reference compound]
Solubility in liquid paraffin [1]: insoluble | Solubility in olive oil [1]: insoluble
